Measurements reported in ChEMBL document CHEMBL1135540, “Identification of a pharmacophore for thrombopoietic activity of small, non-peptidyl molecules. 2. Rational design of naphtho[1,2-d]imidazole thrombopoietin mimics” (J Med Chem, 2002).

Experiments:
[1] = Efficacy in activation of luciferase expression in BAF-3/TPO-Rluc cell line and the value is reported as %TPO; assay type: functional, Homo sapiens
UT7 [2] = test: Efficacy in proliferation of the UT7/TPO-R cell line and the value is reported as %TPO; assay type: functional, Homo sapiens
UT7 [3] = test: Effective concentration for proliferation of UT7/TPO-R cell line.; assay type: functional, cell-based; conditions: Homo sapiens
[4] = (§1) Activation of luciferase expression in BAF-3/TPO-Rluc cell line.; assay type: functional, cell-based; conditions: Homo sapiens
[5] = Agonistic activity against proliferation of UT-7/TPO-R cell line; assay type: functional; conditions: Homo sapiens, UT7/TPO-R
[6] = Efficacy in activation of luciferase expression in UT-7/TPO-R cell line and the value is reported as % salicylaldehyde thio-semicarbazone-thrombopoietin (TPO); assay type: functional, Homo sapiens
[7] = Activation of luciferase expression in the proliferation of UT7/TPO-R cell line.; assay type: functional; conditions: Homo sapiens
[8] = as §1; assay type: cell-based; conditions: Homo sapiens

EC50 [4] [nM]	Compound	TPO [1] [%]	TPO (UT7 [2]) [%]	other results
1200	Cc1ccc(-c2cccc(-c3nc4c(ccc5cc(S(=O)(=O)O)cc(O)c54)[nH]3)c2O)cc1C	36	70	EC50 (UT7 [3]): 1000 nM
26000	O=S(=O)(O)c1cc(O)c2c(ccc3[nH]c(-c4c(O)ccc5ccccc45)nc32)c1	11	<10	–
35000	O=S(=O)(O)c1cc2[nH]c(-c3c(O)ccc4ccccc34)nc2c2c(O)cccc12	52	<10	–
–	CC(C)(C)c1ccc(-c2cccc(-c3nc4c(ccc5cc(C(=O)O)cc(O)c54)[nH]3)c2)cc1	–	–	EC50 [5]: 300 nM; TPO [6]: 60%
–	Cc1ccc(-n2[nH]c(C)c(/N=N/c3c(O)cc(S(=O)(=O)O)c4ccccc34)c2=O)cc1C	–	–	EC50 [7]: 40 nM
4800	O=S(=O)(O)c1cc2[nH]c(-c3ccc4ccccc4c3O)nc2c2c(O)cccc12	28	<10	–
–	Cc1ccc(-c2cccc(/C=N/N=C(\S)Nc3cccc(C(=O)O)c3)c2O)cc1C	–	–	EC50 [7]: 30 nM
9700	O=S(=O)(O)c1cc(O)c2c(ccc3[nH]c(-c4ccc5ccccc5c4O)nc32)c1	27	<10	–
–	CC(C)(C)c1ccc(-c2cccc(-c3nc4c(ccc5cc(S(=O)(=O)O)cc(O)c54)[nH]3)c2)cc1	100	–	EC50 [8]: 80 nM
